One test concerns MCF-7 cells. Description: Annexin V-FITC/propidium iodide flow cytometry. The test is classed as cell-based, human. The note with it: 24 h. How it is done: The MCF-7 cells were seeded on 6-well plates (1 × 10^5 cells per well) and incubated for 24 h. Afterwards, the cells were washed, and tested compounds (Les-6416, Les-6418, Les-6381, Les-6423, and Les-6424) were added in a concentration of 5 µM. The reference drug doxorubicin hydrochloride was applied in a concentration of 0.5 µM. The cells were incubated with the compounds for 24 h. Afterwards, the cells were washed several times with cold PBS and the cell suspensions were prepared in the binding buffer from the kit at a concentration of 1 × 10^6 cells/mL. A total of 100 µL of suspension was collected from each sample and transferred to the tubes. After that, 5 µL of Annexin V-FITC and 5 µL of propidium iodide were added. After 15 min of incubation at room temperature in a dark environment, the content of the tubes was filled with binding buffer up to 500 µL and assessed by BD FACSCanto II flow cytometer (Becton Dickinson Biosciences, San Jose, CA, USA). A total of 1 × 10^4 events were measured for each sample. The results were investigated by applying FACSDiva software Version 6.1.3. (BD Biosciences Systems, San Jose, CA, USA).
To assess the effects of novel compounds on apoptosis, we utilized flow cytometry analysis with Annexin V-FITC and Propidium Iodide double staining. In this way, we could distinguish between different cell populations based on their state: unstained or alive cells, cells stained with propidium iodide or necrotic cells, cells only stained with FITC-labeled annexin V or early apoptotic cells, and cells stained with both annexin V and propidium iodide or late apoptotic cells.

A further test concerns HT-29. Description: MTT cell viability assay. The test is classed as cell-based. Conditions: Homo sapiens. The source says:
(§1) All of the tested cell lines were acquired from the American Type Culture Collection (ATCC, Manassas, VA, USA), including human breast cancer cell lines (MCF-7, MDA-MB-231), human gastric cancer cell line (AGS), human colorectal cancer cell lines (HT-29, DLD-1), human glioblastoma cancer cell lines (T98G, A172), mouse astrocyte type I clone (C8-D1A), human normal epithelial breast cells (MCF-10A) and primary dermal fibroblast (HDFa). Such cell lines as AGS, MCF-7, MDA-MB-231, A172, T98G, C8-D1A, and primary dermal fibroblast (HDFa) were cultured in complete medium–DMEM (Corning, Kennebunk, ME, USA). RPMI-1640 (ATCC, Manassas, VA, USA) was used for the DLD-1 cell line, and McCoy’s 5A (PAN-Biotech, Aidenbach, Germany) for the HT-29 cell line. To all utilized media additionally was added 10% fetal bovine serum (FBS) (Eurx, Gdansk, Poland) and 1% penicillin and streptomycin solution (Corning, Kennebunk, ME, USA). MCF-10A cells were incubated in MEGM (Mammary Epithelial Cell Growth Medium) BulletKit supplemented with penicillin/streptomycin cocktail and 5% horse serum. All cells were cultured at 37 °C in an atmosphere with 5% CO₂ in tissue culture dishes (Sarstedt, Numbrecht, Germany). For experiments, cells were washed with phosphate-buffered saline (PBS) (Corning, Kennebunk, ME, USA) followed by the addition of 0.05% trypsin with 0.02% EDTA (Corning, Kennebunk, ME, USA). Scepter 3.0 cell counter (Merck Millipore, Burlington, MA, USA) was applied before each seeding to calculate the number of cells. For the next analyses, cells were reseeded in 6-well plates, 24-well plates, and 96-well plates.
(§2) MTT (3-(4,5-dimethylthiazol-2-yl)-2,5-diphenyltetrazolium bromide) assay method was utilized to analyze compound effects on cell viability. All cell lines were seeded in 96-well plates with 1 × 10^4 cells per well. After 24 h, cells were treated with the tested compounds and reference drug at concentrations of 0.1, 1, 2.5, 5, 10, and 20 µM for 24, 48, or 72 h. Next, a solution of 3-(4,5-dimethyl-2-thiazolyl)-2,5-diphenyl-2H-tetrazolium bromide (Sigma-Aldrich, St. Louis, MO, USA) in PBS with a concentration of 5 mg/mL was prepared. After the incubation with tested compounds, 10 µL of the prepared MTT solution was applied to each well, followed by 2 h of incubation at 37 °C. Next, cells underwent lysis by adding 100 µL of pre-prepared lysing buffer (containing 25 mM HCl, 2% acetic acid, 3% DMF, and 5% SDS, with a pH of 4.7). The absorbance was measured using a UV-VIS Helios Gamma (Unicam/ThermoFisher Scientific Inc., Cleveland, OH, USA) at 570 nm wavelength. The cells incubated with vehicle substance (0.1% DMSO) were taken as controls.
(§3) To investigate the cytotoxic potential of the newly synthesized compounds, a comprehensive assessment was conducted utilizing the MTT assay. This assay was applied on a diverse panel of cell lines, such as human breast cancer cell lines (MCF-7 and MDA-MB-231), human gastric cancer cell line (AGS), human colorectal cancer cell lines (HT-29 and DLD-1), human glioblastoma cancer cell lines (T98G and A172), mouse astrocyte type I clone cells (C8-D1A), primary dermal fibroblast (HDFa), and human normal breast cells (MCF-10A) for 24, 48, and/or 72 h.
For orientation: Tetrazolium assays rely on reduction of a dye to a coloured formazan, in cell work by metabolically active cells.

For the next test, the system named is DLD-1. Description: MTT cell viability assay. The test is classed as cell-based. The note with it: Homo sapiens.
Excerpt: as §1, §2, §3

For test [1], the system named is Primary Dermal Fibroblast (HDFa). Description: MTT cell viability assay. It counts as cell-based. Conditions: Homo sapiens, normal cells.
Excerpt: as §1, §2, §3

Another test relates to T98G. Description: MTT cell viability assay. The test is classed as cell-based. The note with it: Homo sapiens.
Excerpt: as §1, §2, §3

In a further test the test system is A172. Description: MTT cell viability assay. Conditions: Homo sapiens. It counts as cell-based.
Excerpt: as §1, §2, §3

The test system of another test is MCF-7. Description: MTT cell viability assay. The note with it: Homo sapiens. It counts as cell-based.
Excerpt: as §1, §2, §3

The subject of a further test is MDA-MB-231. Description: MTT cell viability assay. The note with it: Homo sapiens. The test is classed as cell-based.
Excerpt: as §1, §2, §3

The test system of another test is AGS. Description: MTT cell viability assay. The test is classed as cell-based. The note with it: Homo sapiens.
Excerpt: as §1, §2, §3

pIC50: −log10 of the molar value.

What is called pIC50 is −log10 of the IC50, conventionally taken in molar units. Read a high pIC50 as a low IC50.

Turning to `COc1cc(NC2=NC(=O)C(=Cc3ccco3)S2)cc(OC)c1OC` [Les-6424, 5-(Furan-2-ylmethylene)-2-((3,4,5-trimethoxyphenyl)amino)thiazol-4(5H)-one], in the test with MCF-7 cells (5 µM), the “proapoptotic effect in comparison to the control” value is listed as “did not have any statistically significant results”. Further, the viability at 5 µM in the test on MCF-7 cells (Homo sapiens, MCF7, 5 µM, read-out: Viable cells, cell population) worked out at 90.4%. Moreover, the pIC50 (in the test on HT-29 (HT-29 24 h); in the test with HT-29 (HT-29 48 h); with DLD-1 (DLD-1 24 h); in the test with DLD-1 (DLD-1 48 h); in test [1] (HDFa 24 h); in test [1] (HDFa 48 h)) was under 4.70 in each case. Besides, the pIC50 was under 4.70 in [1] (HDFa 72 h); under 4.70 with T98G (T98G 24 h); under 4.70 in the test on T98G (T98G 48 h); under 4.70 in the test with A172 (A 172, A172 24 h); under 4.70 in the test on A172 (A 172, A172 48 h); under 4.70 in the test with MCF-7 (MCF7, MCF-7 24 h). In addition, the negative logarithm of the IC50 (pIC50) with MCF-7 (MCF7, MCF-7 48 h) is under 4.70; with MCF-7 (MCF7, MCF-7 72 h) it was under 4.70; in the test on MDA-MB-231 (MDA-MB-231 24 h), under 4.70; with MDA-MB-231 (MDA-MB-231 48 h), under 4.70; in the test with MDA-MB-231 (MDA-MB-231 72 h) it was under 4.70; with AGS (AGS 24 h), under 4.70. In the test with AGS (AGS 48 h), this compound had a pIC50 of under 4.70.
